The text below walks through data of patent publication US20240252488A1 (KOREA RESEARCH INSTITUTE OF CHEMICAL TECHNOLOGY, priority 2020, published 2024).

Structures are written as SMILES.

Assay [1] deals with T1, MLKL (Homo sapiens, UniProt Q8NB16).
T1 sequence (Q8NB16 1-471): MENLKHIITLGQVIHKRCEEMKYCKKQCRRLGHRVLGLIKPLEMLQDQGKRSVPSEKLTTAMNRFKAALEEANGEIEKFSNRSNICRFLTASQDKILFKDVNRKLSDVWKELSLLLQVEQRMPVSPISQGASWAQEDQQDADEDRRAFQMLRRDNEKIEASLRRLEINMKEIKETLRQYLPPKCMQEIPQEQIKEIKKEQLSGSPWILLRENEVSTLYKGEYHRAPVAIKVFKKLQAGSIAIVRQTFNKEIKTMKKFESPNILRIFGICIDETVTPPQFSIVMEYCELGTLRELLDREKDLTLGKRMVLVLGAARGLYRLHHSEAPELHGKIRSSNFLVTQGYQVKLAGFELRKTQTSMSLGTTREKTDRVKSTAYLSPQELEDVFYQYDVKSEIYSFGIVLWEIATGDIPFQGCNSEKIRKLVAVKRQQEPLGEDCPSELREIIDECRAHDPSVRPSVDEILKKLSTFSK
Nature of the assay: MLKL degradation assay in HepG2 cell line (western blot). The conditions noted are these: cell line not given; for Degradation assay (Degradation %) 1 μM: compound 1 μM; for Degradation assay (Degradation %) 10 μM: compound 10 μM. More on the design: endogenous in cells; host or cells: HepG2 or HaCaT. It is filed as cell-based. A digest of the protocol: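 HepG2, cpd final 1 or 10 μM, 20-24 h, 37 °C/5% CO2; RIPA lysis, BCA-normalized, 10-15 μg/lane SDS-PAGE, western blot, ECL read-out.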
A general note: In western blotting, separated proteins are transferred to a membrane and probed.

For assay [2], the target named is T1, MLKL. The assay is described as follows: Measurement of binding affinity with MLKL receptor (competitive binding assay, Kd). Also noted: made in house; host or cells: HEK 293 cell line (T7 phage in E. coli BL21-derived host is also described). Put shortly: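 Competitive displacement of MLKL, expressed in HEK 293 cells and DNA-tagged for qPCR, from immobilized ligand on biotin-blocked beads. Compounds were added from 111× DMSO stocks (final DMSO 0.9%). Kinase left in the eluates was quantified by qPCR to give Kd.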

In assay [3] the test system is FADD−/− Jurkat cells. The assay is described as follows: Necroptosis inhibition assay, TNF-α-induced necroptosis (CellTiter-Glo 2.0). It is filed as cell-based, human. The conditions noted are these: TNF-α 15 ng/mL; for Necroptosis inhibition assay (Rescue %) 1 μM: compound 1 μM; for Necroptosis inhibition assay (Rescue %) 10 μM: compound 10 μM. A digest of the protocol:
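Cmpd 0.1/1/10 μM final, 30 min RT preincubation; TNF-α 15 ng/mL final; 20–24 h, 37° C, 5% CO2. Readout: ATP luminescence (reagent 1:3 in PBS), 0.5 s/well. Cytotoxicity and % necroptosis inhibition calculated from signal.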
Background: ATP-based viability assays read luminescence as a measure of living cells.

For the compound `Nc1ncc(-c2cnn(C3CCN(CCCC4CCN(C(=O)COc5ccc6c(c5)C(=O)N(C5CCC(=O)NC5=O)C6=O)CC4)CC3)c2)nc1C(=O)O[C@@H](C(=O)Nc1ccc(F)cc1)c1ccccc1` (stereo partly drawn) [TDH-482, (R)-2-((4-fluorophenyl)amino)-2-oxo-1-phenylethyl 3-amino-6-(1-(1-(3-(1-(2-((2-(2,6-dioxopiperidin-3-yl)-1,3-dioxoisoindolin-5-yl)oxy)acetyl)piperidin-4-yl)propyl)piperidin-4-yl)-1H-pyrazol-4-yl)pyrazine-2-carboxylate], in assay [1], the “Degradation assay (Degradation %) 1 μM” value came to 91.19% and the “Degradation assay (Degradation %) 10 μM” value is on record as 88.98%. Also, the affinity in assay [2], expressed as Kd, was 1.2 nM. Besides, in assay [3] (FADD−/− Jurkat cells), the “Necroptosis inhibition assay (Rescue %) 1 μM” value was determined as 78.94% and the “Necroptosis inhibition assay (Rescue %) 10 μM” value was determined as 42.16%.
With `Nc1ncc(-c2cnn(C3CCN(CCOCCOCCNC(=O)C4CCN(c5ccc6c(c5)C(=O)N(C5CCC(=O)NC5=O)C6=O)CC4)CC3)c2)nc1C(=O)O[C@@H](C(=O)Nc1ccc(F)cc1)c1ccccc1` (stereo partly drawn) [TDH-111, (R)-2-((4-fluorophenyl)amino)-2-oxo-1-phenylethyl 3-amino-6-(1-(1-(2-(2-(2-(1-(2-(2,6-dioxopiperidin-3-yl)-1,3-dioxoisoindolin-5-yl)piperidine-4-carboxamido)ethoxy)ethoxy)ethyl)piperidin-4-yl)-1H-pyrazol-4-yl)pyrazine-2-carboxylate], in assay [1], the “Degradation assay (Degradation %) 1 μM” value was determined as 4.54% and the “Degradation assay (Degradation %) 10 μM” value stood at 28.85%. The same compound had a Kd in assay [2] of 5.3 nM. In assay [3], the “Necroptosis inhibition assay (Rescue %) 1 μM” value came out at 45.17% and the “Necroptosis inhibition assay (Rescue %) 10 μM” value was found to be 78.08%.
The like results for `Nc1ncc(-c2cnn(C3CCN(C(=O)c4cn(C5CCN(C(=O)COc6ccc7c(c6)C(=O)N(C6CCC(=O)NC6=O)C7=O)CC5)cn4)CC3)c2)nc1C(=O)O[C@@H](C(=O)Nc1ccc(F)cc1)c1ccccc1` (stereo partly drawn) [TDH-355, (R)-2-((4-fluorophenyl)amino)-2-oxo-1-phenylethyl 3-amino-6-(1-(1-(1-(1-(2-((2-(2,6-dioxopiperidin-3-yl)-1,3-dioxoisoindolin-5-yl)oxy)acetyl)piperidin-4-yl)-1H-imidazole-4-carbonyl)piperidin-4-yl)-1H-pyrazol-4-yl)pyrazine-2-carboxylate] were, in that order, 59.51%, 61.42%, 1.9 nM, 22.40% and 26.54%.
As for `Nc1ncc(-c2cnn(C3CCN(C4CC5(CCN(CC6CCN(C(=O)c7ccc8c(c7)CN(C7CCC(=O)NC7=O)C8=O)CC6)CC5)C4)CC3)c2)nc1C(=O)O[C@@H](C(=O)Nc1ccc(F)cc1)c1ccccc1` (stereo partly drawn) [TDH-548, (R)-2-((4-fluorophenyl)amino)-2-oxo-1-phenylethyl 3-amino-6-(1-(1-(7-((1-(2-(2,6-dioxopiperidin-3-yl)-1-oxoisoindoline-5-carbonyl)piperidin-4-yl)methyl)-7-azaspiro[3.5]nonan-2-yl)piperidin-4-yl)-1H-pyrazol-4-yl)pyrazine-2-carboxylate], in assay [1], the “Degradation assay (Degradation %) 1 μM” value stood at 89.05% and the “Degradation assay (Degradation %) 10 μM” value is recorded as 85.68%. This compound also gave a Kd in assay [2] of 0.19 nM. In addition, in assay [3] (FADD−/− Jurkat cells), the “Necroptosis inhibition assay (Rescue %) 1 μM” value is given as 64.86% and the “Necroptosis inhibition assay (Rescue %) 10 μM” value was determined as 31.41%.
For the compound `Nc1ncc(-c2cnn(C3CCN(C(=O)CC4CCN(C(=O)C5CCN(c6cccc7nnn(C8CCC(=O)NC8=O)c(=O)c67)CC5)CC4)CC3)c2)nc1C(=O)O[C@@H](C(=O)Nc1ccc(F)cc1)c1ccccc1` (stereo partly drawn) [TDH-412, (R)-2-((4-fluorophenyl)amino)-2-oxo-1-phenylethyl 3-amino-6-(1-(1-(2-(1-(1-(3-(2,6-dioxopiperidin-3-yl)-4-oxo-3,4-dihydrobenzo[d][1,2,3]triazin-5-yl)piperidine-4-carbonyl)piperidin-4-yl)acetyl)piperidin-4-yl)-1H-pyrazol-4-yl)pyrazine-2-carboxylate], in assay [1], the “Degradation assay (Degradation %) 1 μM” value stood at 72.66% and the “Degradation assay (Degradation %) 10 μM” value is 72.89%. The compound also gave a Kd in assay [2] of 2.5 nM. Moreover, in assay [3] (FADD−/− Jurkat cells), the “Necroptosis inhibition assay (Rescue %) 1 μM” value is recorded as 24.36% and the “Necroptosis inhibition assay (Rescue %) 10 μM” value was determined as 29.48%.
Turning to `Nc1ncc(-c2cnn(C3CCN(CCCN4CCN(C(=O)COc5ccc6c(c5)C(=O)N(C5CCC(=O)NC5=O)C6=O)CC4)CC3)c2)nc1C(=O)OC(C(=O)Nc1ccc(F)cc1)c1ccccc1` (centres unmarked) [TDH-244, 2-((4-fluorophenyl)amino)-2-oxo-1-phenylethyl 3-amino-6-(1-(1-(3-(4-(2-((2-(2,6-dioxopiperidin-3-yl)-1,3-dioxoisoindolin-5-yl)oxy)acetyl)piperazin-1-yl)propyl)piperidin-4-yl)-1H-pyrazol-4-yl)pyrazine-2-carboxylate], in assay [1], the “Degradation assay (Degradation %) 1 μM” value is given as 75.95% and the “Degradation assay (Degradation %) 10 μM” value was determined as 66.16%. This compound had a Kd in assay [2] of 1.3 nM. In assay [3], the “Necroptosis inhibition assay (Rescue %) 1 μM” value came out at 92.11% and the “Necroptosis inhibition assay (Rescue %) 10 μM” value stood at 65.67%.
`COc1ccc(C(=O)NCC2CCC(CN3CCC(n4cc(-c5cnc(N)c(C(=O)O[C@@H](C(=O)Nc6ccc(F)cc6)c6ccccc6)n5)cn4)CC3)CC2)cc1N1CCC(=O)NC1=O` (stereo partly drawn) [TDH-497, (R)-2-((4-fluorophenyl)amino)-2-oxo-1-phenylethyl 3-amino-6-(1-(1-(((1r,4r)-4-((3-(2,4-dioxotetrahydropyrimidin-1(2H)-yl)-4-methoxybenzamido)methyl)cyclohexyl)methyl)piperidin-4-yl)-1H-pyrazol-4-yl)pyrazine-2-carboxylate]: in assay [1], the “Degradation assay (Degradation %) 1 μM” value worked out at 73.89% and the “Degradation assay (Degradation %) 10 μM” value was 57.10%. Further, in assay [2], the Kd turned out to be 0.61 nM. In assay [3] (FADD−/− Jurkat cells), the “Necroptosis inhibition assay (Rescue %) 1 μM” value was determined as 13.48% and the “Necroptosis inhibition assay (Rescue %) 10 μM” value is −1.14%.
Regarding `Nc1ncc(-c2cnn([C@H]3CCN(CCOCCOCCNC(=O)COc4cccc5c4C(=O)N(C4CCC(=O)NC4=O)C5=O)C3)c2)nc1C(=O)OC(C(=O)Nc1ccc(F)cc1)c1ccccc1` (stereo partly drawn) [TDH-265, 2-((4-fluorophenyl)amino)-2-oxo-1-phenylethyl 3-amino-6-(1-((3S)-1-(2-(2-(2-(2-((2-(2,6-dioxopiperidin-3-yl)-1,3-dioxoisoindolin-4-yl)oxy)acetamido)ethoxy)ethoxy)ethyl)pyrrolidin-3-yl)-1H-pyrazol-4-yl)pyrazine-2-carboxylate], in assay [1], the “Degradation assay (Degradation %) 1 μM” value came out at 11.99% and the “Degradation assay (Degradation %) 10 μM” value worked out at 49.83%. The Kd in assay [2] turned out to be 4.4 nM. Also, in assay [3], the “Necroptosis inhibition assay (Rescue %) 1 μM” value came to 19.18% and the “Necroptosis inhibition assay (Rescue %) 10 μM” value was 41.68%.
Take `Nc1ncc(-c2ccc(N3CCN(CCOCCOCCNC(=O)CNc4ccc5c(c4)C(=O)N(C4CCC(=O)NC4=O)C5=O)CC3)nc2)nc1C(=O)OC(C(=O)Nc1ccc(F)cc1)c1ccccc1` (centres unmarked) [TDH-260, 2-((4-fluorophenyl)amino)-2-oxo-1-phenylethyl 3-amino-6-(6-(4-(2-(2-(2-(2-((2-(2,6-dioxopiperidin-3-yl)-1,3-dioxoisoindolin-5-yl)amino)acetamido)ethoxy)ethoxy)ethyl)piperazin-1-yl)pyridin-3-yl)pyrazine-2-carboxylate]: in assay [1], the “Degradation assay (Degradation %) 1 μM” value stood at 38.65% and the “Degradation assay (Degradation %) 10 μM” value is given as 53.35%. The compound further came in with a Kd in assay [2] of 18 nM. Also, in assay [3], the “Necroptosis inhibition assay (Rescue %) 1 μM” value came to 14.46% and the “Necroptosis inhibition assay (Rescue %) 10 μM” value is 13.52%.
With `Nc1ncc(-c2cnn(C3CCN(CCC4CCN(C(=O)C5CN(c6ccc7nnn(C8CCC(=O)NC8=O)c(=O)c7c6)C5)CC4)CC3)c2)nc1C(=O)O[C@@H](C(=O)Nc1ccc(F)cc1)c1ccccc1` (stereo partly drawn) [TDH-333, (R)-2-((4-fluorophenyl)amino)-2-oxo-1-phenylethyl 3-amino-6-(1-(1-(2-(1-(1-(3-(2,6-dioxopiperidin-3-yl)-4-oxo-3,4-dihydrobenzo[d][1,2,3]triazin-6-yl)azetidine-3-carbonyl)piperidin-4-yl)ethyl)piperidin-4-yl)-1H-pyrazol-4-yl)pyrazine-2-carboxylate], in assay [1], the “Degradation assay (Degradation %) 1 μM” value is recorded as 57.66% and the “Degradation assay (Degradation %) 10 μM” value turned out to be 71.32%. Besides, the Kd in assay [2] came to 4.1 nM. The “Necroptosis inhibition assay (Rescue %) 1.1 μM” value in assay [3] (compound 1.1 µM) is recorded as 58.92 (1.1µM) %. Also, the “Necroptosis inhibition assay (Rescue %) 10 μM” value in assay [3] turned out to be 36.65%.

By Kd is commonly meant the free concentration of one partner at which half of the binding sites on the other are occupied at equilibrium, for simple one-to-one binding. Low readings indicate a tighter complex, high ones a looser complex.
